Laboratory results from patent US9546139B2, “Pyridine carboxylic acid based compound used as a P2X1 and P2X3 receptor antagonist, a production method for the same and a composition comprising the same” (GWANGJU INSTITUTE OF SCIENCE AND TECHNOLOGY, priority 2010, dated 2017).
Where two headings read alike, the source gives them in different places. Values belong to the compound of their own block, whether it stands above or below them.

What was measured:
human P2X3 receptor = target: T1, human P2X3 receptor (Homo sapiens, UniProt P56373); assay: Two-electrode voltage clamp, ATP-induced ion current in Xenopus oocytes expressing human P2X3; type: cell-based; details: for inhibition at 0.1 µM: 100 nM compound; for inhibition at 0.1 µM / inhibition at 10 µM: read-out: % inhibition hP2X3
T1 construct: expressed in transfected cells; host or cells: Xenopus oocytes (cRNA injected); cDNA from the Max-Planck Institute laboratory (Dr. W. Stuhmer and Dr. F. Soto)
T1 sequence (P56373 1-397): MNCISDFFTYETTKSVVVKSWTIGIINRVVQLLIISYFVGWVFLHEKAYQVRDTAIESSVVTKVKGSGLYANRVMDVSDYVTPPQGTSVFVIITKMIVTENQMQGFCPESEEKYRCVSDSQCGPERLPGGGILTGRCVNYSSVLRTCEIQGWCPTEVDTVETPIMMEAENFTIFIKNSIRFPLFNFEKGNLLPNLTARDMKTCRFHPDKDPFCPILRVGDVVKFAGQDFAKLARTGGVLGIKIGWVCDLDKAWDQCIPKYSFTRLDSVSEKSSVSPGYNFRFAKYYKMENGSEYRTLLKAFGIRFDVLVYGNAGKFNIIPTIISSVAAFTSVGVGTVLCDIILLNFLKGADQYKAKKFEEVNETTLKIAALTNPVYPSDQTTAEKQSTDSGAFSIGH
Protocol: Antagonistic Activity at Recombinant Mouse P2X1 and Human P2X3 Receptors
(§1) Xenopus oocytes were harvested and prepared with method as previously described in publications. Defolliculated oocytes were injected cytosolically with mouse P2X1 and human P2X3 receptor cRNA ([…], 1 μg/mL), respectively, incubated for 24 hrs at 18° C. in Barth's solution and kept for up to 12 days at 4° C. until used in electrophysiological experiments. ATP-activated membrane currents (Vh=−70 mV) were recorded from cRNA-injected oocytes using the twin-electrode voltage-clamp technique (Axoclamp 2B amplifier). Voltage recording (1-2 MΩ tip resistance) and current-recording microelectrodes (5 MΩ tip resistance) were filled with 3.0 M KCl. Oocytes were held in an electrophysiological chamber and superfused with Ringer's solution (5 mL/min, at 18° C.) containing (mM) NaCl, 110; KCl, 2.5; HEPES, 5; BaCl2, 1.8, adjusted to pH 7.5. ATP was superfused over the oocytes for 60-120s then washed out for a period of 20 min. For inhibition curves, data were normalized to the current evoked by ATP, at pH 7.5. Test substances were added for 20 min prior to ATP exposure; all peptides were tested for reversibility of their effects. The concentration required to inhibit the ATP response by 50% (IC50) was taken from Hill plots constructed using the formula: log(I/Imax−1), where I is the current evoked by ATP in the presence of an antagonist. Data are presented as mean±SEM (n=4) for the data from different batches of oocytes.

mouse P2X1 receptor = target: T2, mouse P2X1 receptor (Mus musculus, UniProt P51576); assay: Two-electrode voltage clamp, ATP-induced ion current in Xenopus oocytes expressing mouse P2X1; type: cell-based; details: for inhibition at 0.1 µM / inhibition at 10 µM: read-out: % inhibition mP2X1; for antagonistic activity, mouse P2X1 versus human P2X3: comparison of the two receptors
T2 construct: EST clones containing full-length cDNAs of mouse P2X1 (clone ID: 4189541) and human P2X7 receptor (clone ID: 5286944); host or cells: Xenopus oocytes (cRNA injected)
T2 sequence (P51576 1-399): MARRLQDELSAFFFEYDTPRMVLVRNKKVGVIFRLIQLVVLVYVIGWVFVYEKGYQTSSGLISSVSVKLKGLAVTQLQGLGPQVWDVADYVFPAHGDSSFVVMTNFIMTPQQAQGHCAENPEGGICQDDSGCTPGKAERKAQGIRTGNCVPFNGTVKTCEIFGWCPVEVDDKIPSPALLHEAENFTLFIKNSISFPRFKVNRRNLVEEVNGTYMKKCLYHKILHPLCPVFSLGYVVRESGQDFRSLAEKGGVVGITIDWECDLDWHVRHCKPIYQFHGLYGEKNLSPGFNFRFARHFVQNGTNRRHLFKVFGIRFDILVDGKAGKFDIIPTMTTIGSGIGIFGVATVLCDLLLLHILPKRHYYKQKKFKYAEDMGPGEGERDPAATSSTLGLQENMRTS
Protocol: 1-1. Antagonistic Activity at Recombinant Mouse P2X1 and Human P2X3 Receptors
as §1

[1] = Table 1, ion current induced by 2 μM ATP, mean ± SEM, n = 4
[2] = concentration-inhibitory curve, 2 μM ATP (FIG. 1C, FIG. 2B)
[3] = concentration-inhibitory curve, 2 μM ATP, read-out: IC50 value (FIG. 1C)
[4] = concentration-response curve, 2 μM ATP, mean of four observations, read-out: IC50 value
[5] = Table 1, 100 nM compound, ion current induced by 2 μM ATP, mean ± SEM, n = 4
[6] = concentration-inhibitory curve, 2 μM ATP (FIG. 1B, FIG. 2A)
[7] = concentration-inhibitory curve, 2 μM ATP, read-out: IC50 value (FIG. 1B)
[8] = Table 1, 10 μM compound, ion current induced by 2 μM ATP, mean ± SEM, n = 4

Compound: Cc1nc(N=Nc2cc(S(=O)(=O)O)ccc2S(=O)(=O)O)c(COP(=O)(O)O)c(C=O)c1O [Compound 3, pyridoxal-phosphate-6-azophenyl-2′,5′-disulfonic acid, reference compound]
- % inhibition hP2X3 (human P2X3 receptor): 48.3 ± 5.6%
- Hill coefficient (human P2X3 receptor): −1.11±0.27
- IC50 (human P2X3 receptor; read-out: IC50 value (FIG. 1C)): 96.2 ± 21 nM
- % inhibition mP2X1 (mouse P2X1 receptor): 62.4 ± 3.1%
- Hill coefficient (mouse P2X1 receptor): −1.09±0.13
- IC50 (mouse P2X1 receptor; read-out: IC50 value (FIG. 1B)): 30.7 ± 5.12 nM

Compound: Cc1ncc(CCC(=O)O)c(C(=O)O)c1O [Compound 14, 5-(2-Carboxyethyl)-3-hydroxy-2-methyl isonicotinic acid]
- inhibition at 10 µM (human P2X3 receptor; [8]): 15.2 ± 7.7%
- inhibition at 10 µM (mouse P2X1 receptor; [8]): 14.8 ± 1.7%

Compound: O=C(O)c1cc(C(=O)O)c(C(=O)N(Cc2cccc(Oc3ccccc3)c2)[C@H]2CCCc3ccccc32)cc1C(=O)O [A-317491, reference compound]
- Hill coefficient (human P2X3 receptor; [2]): −0.68±0.18

Compound: Cc1ncc(CN(CCC(=O)O)Cc2ccccc2)c(C(=O)O)c1O [Compound 23, 5-((Benzyl(2-carboxyethyl)amino)methyl)-3-hydroxy-2-methylisonicotinic acid]
- % inhibition hP2X3 (human P2X3 receptor; [8]): inactive
- % inhibition mP2X1 (mouse P2X1 receptor; [8]): inactive

Compound: Cc1ncc(CCC(=O)O)c(C=O)c1O [Compound 13, 3-(4-formyl-5-hydroxy-6-methylpyridin-3-yl) propanoic acid]
- inhibition at 10 µM (human P2X3 receptor; [8]): 22.3 ± 8.1%
- inhibition at 10 µM (mouse P2X1 receptor; [8]): 19.5 ± 5.1%

Compound: Cc1ncc(C=CC(=O)O)c(C(=O)O)c1O [Compound 18, 5-(2-Carboxyvinyl)-3-hydroxy-2-methylisonicotinic acid]
- % inhibition hP2X3 (human P2X3 receptor; [8]): inactive
- % inhibition mP2X1 (mouse P2X1 receptor; [8]): inactive

Compound: Cc1nc(N=Nc2cc(S(=O)(=O)O)ccc2S(=O)(=O)O)c(CCC(=O)O)c(C=O)c1O [Compound 24, 3-(2-((2,5-Disulfophenyl)diazenyl)-4-formyl-5-hydroxy-6-methylpyridin-3-yl)propanoic acid]
- inhibition at 0.1 µM (human P2X3 receptor; [1]): 40.1 ± 8.4%
- Hill coefficient (human P2X3 receptor; [2]): −1.18±0.25
- IC50 (human P2X3 receptor; [3]): 105 ± 17.5 nM
- IC50 (human P2X3 receptor; [4]): 105 nM
- inhibitory activity to the ATP-induced ion current (mouse P2X1 receptor; FIG. 1A, 2 μM ATP, two concentrations): concentration-dependent inhibitory activity
- inhibition at 0.1 µM (mouse P2X1 receptor; [5]): 58.6 ± 4.5%
- Hill coefficient (mouse P2X1 receptor; [6]): −1.13±0.40
- IC50 (mouse P2X1 receptor; [7]): 70.5 ± 2.72 nM
- IC50 (mouse P2X1 receptor; [4]): 70 nM

Now from value to compound, other results behind:

- inhibition at 0.1 µM (human P2X3 receptor; [1]): 56.3 ± 8.8%
- Hill coefficient (human P2X3 receptor; [2]): −1.08±0.02
- IC50 (human P2X3 receptor; [3]): 79.8 ± 1.21 nM
- IC50 (human P2X3 receptor; [4]): 80 nM
- inhibition at 0.1 µM (mouse P2X1 receptor; [5]): 48.5 ± 9.5%
- Hill coefficient (mouse P2X1 receptor; [6]): −1.20±0.45
- IC50 (mouse P2X1 receptor; [7]): 130 ± 13.6 nM
- IC50 (mouse P2X1 receptor; [4]): 130 nM
Compound: Cc1nc(N=Nc2ccc(C(=O)O)cc2)c(CCC(=O)O)c(C=O)c1O [Compound 28, 4-((3-(2-carboxyethyl)-4-formyl-5-hydroxy-6-methylpyridin-2-yl)diazenyl)benzoic acid]

- inhibition at 0.1 µM (human P2X3 receptor; [1]): 25.7 ± 6.9%
- inhibition at 0.1 µM (mouse P2X1 receptor; [5]): 51.7 ± 7.4%
Compound: Cc1nc(N=Nc2ccc(C(=O)O)cc2)c(CCC(=O)O)c(C(=O)O)c1O [Compound 29, 3-(2-carboxyethyl)-2-((4-carboxyphenyl)diazenyl)-5-hydroxy-6-methy lisonicotinic acid]
- antagonistic activity, mouse P2X1 versus human P2X3 (mouse P2X1 receptor): more powerful antagonistic activity to mouse P2X1 than human P2X3 receptor

- inhibition at 0.1 µM (human P2X3 receptor; [1]): 37.6 ± 6.9%
- inhibition at 0.1 µM (mouse P2X1 receptor; [5]): 57.6 ± 8.8%
Compound: Cc1nc(N=Nc2ccc(S(=O)(=O)O)cc2)c(CCC(=O)O)c(C(=O)O)c1O [Compound 27, 3-(2-carboxyethyl)-5-hydroxy-6-methyl-2-((4-sulfophenyl)diazenyl)isonicotinic acid]
- antagonistic activity, mouse P2X1 versus human P2X3 (mouse P2X1 receptor): more powerful antagonistic activity to mouse P2X1 than human P2X3 receptor

- inhibition at 0.1 µM (human P2X3 receptor; [1]): 45.7 ± 10.8%
- % inhibition mP2X1 (mouse P2X1 receptor; [5]): 60.2 ± 4.9%
- inhibition at 0.1 µM (mouse P2X1 receptor; [5]): 60%
Compound: Cc1nc(N=Nc2cc(S(=O)(=O)O)ccc2S(=O)(=O)O)c(CCC(=O)O)c(C(=O)O)c1O [Compound 25, 3-(2-Carboxyethyl)-2-((2,5-disulfophenyl)diazenyl)-5-hydroxy-6-methylisonicotinic acid]
- antagonistic activity, mouse P2X1 versus human P2X3 (mouse P2X1 receptor): more powerful antagonistic activity to mouse P2X1 than human P2X3 receptor

- Hill coefficient (mouse P2X1 receptor; [6]): −1.13±0.20
Compound: Cc1nc(/N=N/c2ccc(C(=O)O)cc2)c(COP(=O)(O)O)c(C=O)c1O [MRS2159, reference compound]
